According to patent US7786106B2, “Substituted benzene derivatives or salts thereof” (Astellas Pharma Inc., priority 2003, dated 2010):
Where a name gives a salt, the structure may show the parent alone.

Tests used:
[1] = system: extrinsic coagulation time (PT); experiment: Ex vivo measurement of coagulation time in cynomolgus monkeys (oral administration), extrinsic coagulation time (PT); conditions: for Test on Measurement of Coagulation Time in Cynomolgus Monkeys (PT): relative ratio of coagulation time to control, blood collection point with the most potent extension
Method: 4) Test on Ex Vivo Measurement of Coagulation Time in Cynomolgus Monkeys (Oral Administration)
A drug (5 mg/ml or 0.5 mg/ml) which was dissolved (suspended) in 0.5% methylcellulose was compulsorily administered per os at a dose of 2 ml/kg (10 mg/kg or 1 mg/kg) via an oral gavage after blood collection before the administration of the drug to a male cynomolgus monkeys (body weight around 4 kg) fasted for 12 hours or longer and, after 1, 2, 4, 6 and 8 hour(s), 2 ml of blood was collected from femoral vein using 1/10 volume of 3.8% sodium citrate and blood plasma was separated by means of centrifugal treatment of 3,000 rpm for 10 minutes. Using the resulting blood plasma, extrinsic coagulation time (PT) and intrinsic coagulation time (APTT) were measured in accordance with the following methods a) and b). The experiment was carried out under non-anesthetization.
a) Extrinsic Coagulation Time (PT)
Ortho Brain Thromboplastin (54 mg/vial; a freeze-dried preparation; Ortho-Clinical Diagnostics) was dissolved in 2.5 ml of Milli-Q water and preliminarily warmed at 37° C. The above-separated blood plasma (50 μl) was warmed at 37° C. for 1 minute, 50 μl of the above-mentioned thromboplastin solution was added and the coagulation time was measured. KC10 of Amelung was used for the measurement of the coagulation time.

human factor Xa = target: T1, human factor Xa (Homo sapiens, UniProt P00742); experiment: In vitro test on measurement of coagulation time by human activated blood coagulation factor X (human plasma); assay type: biochemical; conditions: for Test on Measurement of Coagulation Time by Human Activated Blood Coagulation Factor X (CT2): CT2 = concentration by which the coagulation time is prolonged 2-fold, human blood plasma; for anti-blood coagulation action (extension of coagulation time), in words: in vitro, human plasma
T1 construct: purchased Enzyme Research Labs
T1 sequence (P00742 235-488 limits assumed): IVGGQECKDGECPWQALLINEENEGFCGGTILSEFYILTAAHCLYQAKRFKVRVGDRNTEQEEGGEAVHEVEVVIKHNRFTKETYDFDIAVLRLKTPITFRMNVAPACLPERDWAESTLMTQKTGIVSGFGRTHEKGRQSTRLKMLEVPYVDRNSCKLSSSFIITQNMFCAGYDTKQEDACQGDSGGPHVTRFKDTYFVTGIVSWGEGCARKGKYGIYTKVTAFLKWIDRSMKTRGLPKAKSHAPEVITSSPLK
T1 sequence (P00742 41-179 partner limits assumed): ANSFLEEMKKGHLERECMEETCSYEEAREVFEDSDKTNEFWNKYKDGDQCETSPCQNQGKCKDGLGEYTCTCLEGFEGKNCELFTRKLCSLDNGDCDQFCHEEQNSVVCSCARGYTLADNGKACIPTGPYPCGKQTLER
Method: 1) An In Vitro Test on Measurement of Coagulation Time by Human Activated Blood Coagulation Factor X
To 90 μl of human blood plasma were added 10 μl of a drug or a physiological saline and 50 μl of human factor Xa (Enzyme Research Labs), incubation was carried out at 30° C. for 3 minutes, 100 μl of 20 mM CaCl2 previously warmed at 37° C. were added and the time until coagulation was measured by a coagulo-meter (KC10 of Amelung). With regard to the human blood plasma, each 45 ml of blood were collected from vein of elbow of six healthy persons using a syringe in which 5 ml of 3.8% sodium citrate were contained and centrifuged at 4° C. for 15 minutes at 3,000 rpm and the separate blood plasma was pooled and frozen, then thawed before use. With regard to the human factor Xa, the concentration by which the coagulation time when a physiological saline solution (control) was added was about 30 to 40 seconds was selected. A CT2 value (concentration by which the coagulation time is prolonged to an extent of 2-fold) was determined by plotting the drug concentrations and relative value (fold) of the coagulation time to the control, followed by subjecting to linear regression.

Row | Compound | Test on Measurement of Coagulation Time by Human Activated Blood Coagulation Factor X (CT2) (human factor Xa) | Test on Measurement of Coagulation Time in Cynomolgus Monkeys (PT) ([1]; 10 mg/kg per os) | extending action for the coagulation time compared with control (Example 44 of WO 00/39118) ([1]; same dose as control (10 mg/kg), oral, cynomolgus monkeys) | anti-blood coagulation action (extension of coagulation time), in words (human factor Xa) | Test on Measurement of Coagulation Time in Cynomolgus Monkeys (PT) ([1]; 1 mg/kg per os)
1 | CC(C)N1CCC(C(=O)Nc2ccc(Cl)cc2C(=O)Nc2ccc(Cl)cn2)CC1 [Control Compound, reference compound] | – | 2.00 | – | – | –
2 | CC(C)N1CCC(C(=O)Nc2c(O[C@@H]3O[C@H](CO)[C@H](O)[C@H](O)[C@H]3O)cc(Br)cc2C(=O)Nc2ccc(Cl)cn2)CC1 [Example 1, trifluoroacetate] | 0.295 µM | 7.69 | longer extending action for the coagulation time | extend the coagulation time at low concentration | –
3 | CC(=O)N[C@H]1[C@H](Oc2cc(Br)cc(C(=O)Nc3ccc(Cl)cn3)c2NC(=O)C2CCN(C(C)C)CC2)O[C@H](CO)[C@@H](O)[C@@H]1O [Example 3, 2′-(2-acetamido-2-deoxy-β-D-glucopyranosyloxy)-4′-bromo-6′-[(5-chloro-2-pyridyl)-carbamoyl]-1-isopropylpiperidine-4-carboxanilide trifluoroacetate] | – | 5.60 | – | – | –
4 | COC[C@H]1O[C@@H](Oc2cc(Br)cc(C(=O)Nc3ccc(Cl)cn3)c2NC(=O)C2CCN(C(C)C)CC2)[C@H](O)[C@@H](O)[C@@H]1O [Example 8] | 0.137 µM | – | – | extend the coagulation time at low concentration | –
5 | CC(C)N1CCC(C(=O)Nc2c(O)cc(Br)cc2C(=O)Nc2ccc(Cl)cn2)CC1 [Example 19, 4′-bromo-2′-[(5-chloro-2-pyridyl)carbamoyl]-6′-hydroxy-1-isopropylpiperidine-4-carboxanilide hydrochloride] | – | – | – | – | 2.26

Second part, led by results:

Row | Test on Measurement of Coagulation Time by Human Activated Blood Coagulation Factor X (CT2) (human factor Xa) | Compound | Test on Measurement of Coagulation Time in Cynomolgus Monkeys (PT) ([1]; 10 mg/kg per os) | extending action for the coagulation time compared with control (Example 44 of WO 00/39118) ([1]; same dose as control (10 mg/kg), oral, cynomolgus monkeys) | anti-blood coagulation action (extension of coagulation time), in words (human factor Xa) | Test on Measurement of Coagulation Time in Cynomolgus Monkeys (PT) ([1]; 1 mg/kg per os)
6 | 0.617 µM | CC(C)N1CCC(CNc2c(O)cc(Cl)cc2C(=O)Nc2ccc(Cl)cn2)CC1 [Example 10] | – | – | extend the coagulation time at low concentration | –
7 | 0.153 µM | CC(C)N1CCC(C(=O)Nc2c(O)cc(Cl)cc2C(=O)Nc2ccc(Cl)cn2)CC1 [Example 18, 4′-chloro-2′-[(5-chloro-2-pyridyl)carbamoyl]-6′-hydroxy-1-isopropylpiperidine-4-carboxanilide hydrochloride] | – | – | extend the coagulation time at low concentration | 1.94
